We go through one compound from US10500288B2, “Cytotoxic HEXIM1 peptides and uses thereof” (AGENCY FOR SCIENCE, TECHNOLOGY AND RESEARCH, priority 2015, dated 2019).

Peptide text beside a SMILES is read from it.

The test system of data set [1] is human foreskin fibroblasts (HFF). As to the kind of experiment: Cell viability (Cell-Titer Glo) in human foreskin fibroblasts. It counts as cell-based. The settings on record: HFF normal fibroblasts; overnight, various concentrations. As to the method: Human cell lines including HeLa, HEK293, MCF7, MDA-MB-231, CHO-K1, OPM-2, and WI-38 were obtained from American Type Culture Collection. AML2 and AML3 cells were purchased from Deutsche Sammlung von Mikroorganismen und Zellkulturen. HCT116 p53+/+ and p53−/− cells were kindly given by Dr. Bert Vogelstein. Primary human foreskin fibroblasts (HFF) were obtained from Dr. Mark Stinski. […] MDA-MB-231 and OPM-2 cells were cultured in RPMI-1640 (Gibco) containing 10% FBS and 1% penicillin/streptomycin. All cells were routinely maintained in a 37° C. incubator with 5% CO2.
Cells were plated in clear-bottomed white walled 96-well plates (Corning) and incubated overnight. Cells were treated with indicated peptides in 1% FBS-containing media for overnight or indicated timings at 37° C. Cell viability was measured with CellTiter-Glo reagent (Promega) according to the manufacturer's instructions. For cytotoxicity assay, cells were plated in black walled 96-well plates (Corning) to allow them to adhere overnight. Upon treatment with a pan-caspase inhibitor, z-VAD-Fmk ([…]) (Sigma) and subsequent treatment with LTV-tagged peptides, cytotoxicity induced was determined by CellTox cytotoxicity assay (Promega) 30 minutes after addition of peptides according to the manufacturer's instructions. Luminescence was determined using an Infinite 200 multiplate reader (Tecan).

For a further data set, the system named is MCF7 cells. Briefly: CellTox cytotoxicity assay with or without z-VAD-Fmk. The note with it: 30 μM, thirty minutes at 37° C. The class given is cell-based. The protocol:
HCT116 (p53 WT) and HCT116 (p53 KO) cells were cultured on glass slides overnight, treated with vehicle control (0.5% dimethyl sulfoxide (DMSO)) or the indicated FGF peptides (30 μM). Time-lapse DIC imaging highlights dynamic morphological changes in treated HCT116 cells by spinning disk confocal microscopy. […] In contrast, FGF-BR peptide rapidly induces drastic changes to the cell morphology with rupturing of the plasma membrane accompanied with damages to the nuclear membrane and abnormalities to the nucleolus in both cell types. (B) cytotoxicity fluorescence plots of breast cancer cells MCF7 showing the effect of pan-caspase inhibitor z-VAD-Fmk on cells treated with LTV-tagged BR peptide. […] Data representative of at least three independent experiments performed in triplicate were shown with values expressed as mean±SD.
Cells were plated in clear-bottomed white walled 96-well plates (Corning) and incubated overnight. […] Cell viability was measured with CellTiter-Glo reagent (Promega) according to the manufacturer's instructions. […] Upon treatment with a pan-caspase inhibitor, z-VAD-Fmk ([…]) (Sigma) and subsequent treatment with LTV-tagged peptides, cytotoxicity induced was determined by CellTox cytotoxicity assay (Promega) 30 minutes after addition of peptides according to the manufacturer's instructions. Luminescence was determined using an Infinite 200 multiplate reader (Tecan).

With `CC(C)C[C@H](NC(=O)[C@H](CCC(N)=O)NC(=O)CNC(=O)[C@H](CS)NC(=O)CNC(=O)[C@H](Cc1ccc(O)cc1)NC(=O)[C@H](Cc1c[nH]c2ccccc12)NC(=O)[C@@H]1CCCN1C(=O)[C@H](CO)NC(=O)[C@@H](NC(=O)[C@@H](NC(=O)[C@@H](N)CC(C)C)[C@@H](C)O)C(C)C)C(=O)NCC(=O)N[C@@H](CCCCN)C(=O)N[C@@H](CCCCN)C(=O)N[C@@H](CCCCN)C(=O)N[C@@H](Cc1c[nH]cn1)C(=O)N[C@@H](CCCNC(=N)N)C(=O)N[C@@H](CCCNC(=N)N)C(=O)N[C@@H](CCCNC(=N)N)C(=O)N1CCC[C@H]1C(=O)N[C@@H](CO)C(=O)N[C@@H](CCCCN)C(=O)N[C@@H](CCCCN)C(=O)N[C@@H](CCCCN)C(=O)N[C@@H](CCCNC(=N)N)C(=O)N[C@@H](Cc1c[nH]cn1)C(=O)N[C@@H](Cc1c[nH]c2ccccc12)C(=O)O` [LTV-BR] (H-LTVSPWYGCGQLGKKKHRRRPSKKKRHW-OH), the “cytotoxicity (cell viability)” value in data set [1] was “does not show such non-specific cytotoxicity”. In addition, in the data set with MCF7 cells, the cytotoxicity fluorescence result is “significant cytotoxic effect”.
